Test results from patent US12473303B2, “4-[[(7-aminopyrazolo[1,5-a]pyrimidin-5-yl)amino methyl]piperidin-3-ol compounds and their therapeutic use” (CARRICK THERAPEUTICS LIMITED, priority 2019, dated 2025).
Read-outs that look alike come from different tables or passages of the source.

Experiments:
[1] = target: Human CDK12 wt/CycK (Homo sapiens (Human), UniProt Q9NYV4); assay: Radiometric protein kinase assay (33PanQinase Activity Assay), CDK12; format: biochemical; conditions: for CDK7/CDK12: ratio greater than 1 indicated selectivity for CDK12
Chain of Human CDK12 wt/CycK (Q9NYV4 whole entry): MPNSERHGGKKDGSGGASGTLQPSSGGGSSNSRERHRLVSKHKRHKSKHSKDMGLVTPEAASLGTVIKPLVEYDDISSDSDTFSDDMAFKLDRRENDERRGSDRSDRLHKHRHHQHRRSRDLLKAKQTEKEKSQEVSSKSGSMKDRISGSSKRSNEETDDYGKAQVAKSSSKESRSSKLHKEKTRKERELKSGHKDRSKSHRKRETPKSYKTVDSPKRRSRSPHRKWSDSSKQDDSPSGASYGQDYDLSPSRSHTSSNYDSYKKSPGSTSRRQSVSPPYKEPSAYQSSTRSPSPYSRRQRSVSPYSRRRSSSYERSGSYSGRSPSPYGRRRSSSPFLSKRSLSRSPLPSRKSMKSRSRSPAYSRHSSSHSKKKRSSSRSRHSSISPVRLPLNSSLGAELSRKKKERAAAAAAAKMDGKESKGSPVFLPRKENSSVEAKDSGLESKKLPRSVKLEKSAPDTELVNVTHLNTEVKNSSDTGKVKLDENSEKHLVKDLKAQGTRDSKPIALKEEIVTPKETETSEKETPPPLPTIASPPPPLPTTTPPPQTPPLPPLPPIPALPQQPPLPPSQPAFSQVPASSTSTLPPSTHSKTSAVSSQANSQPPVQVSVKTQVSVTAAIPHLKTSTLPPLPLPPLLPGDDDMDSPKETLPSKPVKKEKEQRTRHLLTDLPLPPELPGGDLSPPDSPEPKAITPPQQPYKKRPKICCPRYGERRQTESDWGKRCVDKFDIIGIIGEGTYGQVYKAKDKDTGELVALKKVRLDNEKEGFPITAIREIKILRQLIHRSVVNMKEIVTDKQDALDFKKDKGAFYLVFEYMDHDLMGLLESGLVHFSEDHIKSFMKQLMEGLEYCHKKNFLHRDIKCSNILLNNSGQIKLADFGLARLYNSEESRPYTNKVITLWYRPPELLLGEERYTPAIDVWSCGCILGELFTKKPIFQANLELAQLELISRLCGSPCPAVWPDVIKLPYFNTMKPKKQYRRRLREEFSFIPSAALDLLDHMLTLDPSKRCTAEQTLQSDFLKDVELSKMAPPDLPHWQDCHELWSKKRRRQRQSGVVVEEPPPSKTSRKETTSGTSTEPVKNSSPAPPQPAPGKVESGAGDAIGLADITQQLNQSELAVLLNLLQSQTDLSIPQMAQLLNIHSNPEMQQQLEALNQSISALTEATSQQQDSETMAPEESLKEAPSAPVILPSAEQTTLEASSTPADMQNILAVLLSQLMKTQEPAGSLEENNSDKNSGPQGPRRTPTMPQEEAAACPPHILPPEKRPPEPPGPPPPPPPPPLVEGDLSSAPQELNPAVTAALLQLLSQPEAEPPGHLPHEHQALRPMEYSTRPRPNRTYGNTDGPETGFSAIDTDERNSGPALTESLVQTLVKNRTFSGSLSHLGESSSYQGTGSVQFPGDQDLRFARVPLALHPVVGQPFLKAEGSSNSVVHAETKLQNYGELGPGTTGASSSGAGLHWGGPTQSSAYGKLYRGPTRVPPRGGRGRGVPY
Chain of Human CDK12 wt/CycK (O75909 whole entry partner): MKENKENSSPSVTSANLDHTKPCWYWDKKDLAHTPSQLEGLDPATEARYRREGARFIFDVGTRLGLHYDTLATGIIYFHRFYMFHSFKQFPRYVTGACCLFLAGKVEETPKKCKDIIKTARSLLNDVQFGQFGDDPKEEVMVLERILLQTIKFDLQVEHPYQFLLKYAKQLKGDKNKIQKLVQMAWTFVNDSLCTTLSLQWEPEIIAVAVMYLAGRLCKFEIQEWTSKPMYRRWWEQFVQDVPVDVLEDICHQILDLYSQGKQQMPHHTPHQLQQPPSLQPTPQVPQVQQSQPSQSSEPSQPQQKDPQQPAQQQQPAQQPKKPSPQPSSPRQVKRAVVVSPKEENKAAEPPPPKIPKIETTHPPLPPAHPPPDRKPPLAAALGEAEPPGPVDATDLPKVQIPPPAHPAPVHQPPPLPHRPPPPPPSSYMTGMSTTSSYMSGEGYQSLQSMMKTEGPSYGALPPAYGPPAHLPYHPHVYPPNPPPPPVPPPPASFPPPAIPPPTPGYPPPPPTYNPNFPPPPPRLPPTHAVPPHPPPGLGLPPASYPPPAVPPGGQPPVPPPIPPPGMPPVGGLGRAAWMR
Experimental: (§1) A radiometric protein kinase assay (^33PanQinase® Activity Assay) was used for measuring the kinase activity of the two protein kinases (CDK12/CDK7). All kinase assays were performed in 96-well FlashPlates™ from PerkinElmer (Boston, MA, USA) in a 50 μL reaction volume.
(§2) The reaction cocktail was pipetted in four steps in the following order: • 20 μL of assay buffer (standard buffer) • 5 μL of ATP solution (in H2O) • 5 μL of test compound (in 10% DMSO) • 10 μL of substrate/10 μL of enzyme solution (premixed)
(§3) The reaction mixture was incubated at 30° C. for 60 min and then stopped by the addition of 2% (v/v) H3PO4. Plates were aspirated and washed two times with 200 μL 0.9% (w/v) NaCl. Incorporation of ^33Pi was determined with a microplate scintillation count (Microbeta, Wallac).
(§4) The fitting method used was a least-squares fit.

[2] = target: Human CDK7/CycH/MAT1 (Homo sapiens (Human), UniProt P50613); assay: Radiometric protein kinase assay (33PanQinase Activity Assay), CDK7; format: biochemical; conditions: Table 1; ATP 3 μM
Chain of Human CDK7/CycH/MAT1 (P50613 whole entry): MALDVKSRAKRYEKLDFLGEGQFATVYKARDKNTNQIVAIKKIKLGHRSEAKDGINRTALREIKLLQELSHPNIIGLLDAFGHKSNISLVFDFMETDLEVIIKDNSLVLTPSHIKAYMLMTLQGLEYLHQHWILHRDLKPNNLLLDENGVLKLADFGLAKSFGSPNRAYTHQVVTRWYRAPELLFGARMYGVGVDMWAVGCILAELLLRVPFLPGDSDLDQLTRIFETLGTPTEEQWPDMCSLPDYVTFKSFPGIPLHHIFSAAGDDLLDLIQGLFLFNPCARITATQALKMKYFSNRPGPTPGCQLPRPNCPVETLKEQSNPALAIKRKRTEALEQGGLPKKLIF
Chain of Human CDK7/CycH/MAT1 (P51946 whole entry partner): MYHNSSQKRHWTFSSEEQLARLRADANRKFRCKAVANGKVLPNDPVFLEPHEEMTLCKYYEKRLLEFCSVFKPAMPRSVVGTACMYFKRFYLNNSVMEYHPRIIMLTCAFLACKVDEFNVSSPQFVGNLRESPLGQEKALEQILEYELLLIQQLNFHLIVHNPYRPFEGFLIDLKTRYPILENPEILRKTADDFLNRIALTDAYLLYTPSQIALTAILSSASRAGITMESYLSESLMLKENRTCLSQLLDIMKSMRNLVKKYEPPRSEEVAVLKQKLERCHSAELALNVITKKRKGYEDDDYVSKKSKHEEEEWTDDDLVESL
Chain of Human CDK7/CycH/MAT1 (P51948 whole entry partner): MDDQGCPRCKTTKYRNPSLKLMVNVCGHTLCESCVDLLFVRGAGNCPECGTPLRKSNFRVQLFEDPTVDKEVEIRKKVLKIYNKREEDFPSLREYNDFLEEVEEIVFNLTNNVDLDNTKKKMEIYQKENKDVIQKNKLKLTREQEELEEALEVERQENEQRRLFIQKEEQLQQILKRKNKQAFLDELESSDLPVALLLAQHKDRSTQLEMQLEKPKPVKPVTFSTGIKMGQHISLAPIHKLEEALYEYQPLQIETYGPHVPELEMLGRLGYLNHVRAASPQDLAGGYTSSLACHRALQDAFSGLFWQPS
Experimental: as §1, §2, §3, §4

[3] = system: A673 cells; assay: Cellular potency in A673 cells; format: cell-based; conditions: for IC50: Homo sapiens, A673, Table 3, A673 cells; for Ratio of Biochemical Potency: Cellular Potency: Table 3, ratio >0.9 is an indicator of Cyclin K degradation
[4] = Table 1, ATP 0.3 μM, read-out: CDK12 IC50
[5] = Table 3, CDK12 kinase activity, read-out: Biochemical Potency IC50

## [2H]C([2H])(Nc1cc(NC[C@H]2CCNC[C@@H]2O)nc2c(C(C)C)cnn12)c1cn2ccccc2n1 [H-APPAMP-018, (3R,4R)-4-(((7-((imidazo[1,2-a]pyridin-2-ylmethyl-d2)amino)-3-isopropylpyrazolo[1,5-a]pyrimidin-5-yl)amino)methyl)piperidin-3-ol]
[1]; [4]
  IC50: 65 nM
[1]; Table 1
  CDK7/CDK12: 3.2
[1]; [5]
  IC50: 65 nM
[2]
  IC50: 206 nM
[3]
  IC50: 16.3 nM
  Ratio of Biochemical Potency: Cellular Potency: 4.0

## CC(C)c1cnn2c(NC(C)c3cn4ccccc4n3)cc(NC[C@H]3CCNC[C@@H]3O)nc12 (stereo partly drawn) [H-APPAMP-019, (3R,4R)-4-(((7-((1-(imidazo[1,2-a]pyridin-2-yl)ethyl)amino)-3-isopropylpyrazolo[1,5-a]pyrimidin-5-yl)amino)methyl)piperidin-3-ol]
[1]; [4]
  IC50: 522 nM
[1]; Table 1
  CDK7/CDK12: 1.2
[1]; [5]
  IC50: 522 nM
[2]
  IC50: 640 nM
[3]
  IC50: 76.9 nM
  Ratio of Biochemical Potency: Cellular Potency: 6.8

## CC(C)c1cnn2c(NCc3cc4ccccc4o3)cc(NC[C@H]3CCNC[C@@H]3O)nc12 [H-APPAMP-020, (3R,4R)-4-(((7-((benzofuran-2-ylmethyl)amino)-3-isopropylpyrazolo[1,5-a]pyrimidin-5-yl)amino)methyl)piperidin-3-ol]
[1]; [4]
  IC50: 540 nM
[1]; Table 1
  CDK7/CDK12: 0.2
[1]; [5]
  IC50: 540 nM
[2]
  IC50: 82 nM
[3]
  IC50: 116 nM
  Ratio of Biochemical Potency: Cellular Potency: 4.7

## CC(C)c1cnn2c(NCc3cnc4ccccc4c3)cc(NC[C@H]3CCNC[C@@H]3O)nc12 [H-APPAMP-021, (3R,4R)-4-(((3-isopropyl-7-((quinolin-3-ylmethyl)amino)pyrazolo[1,5-a]pyrimidin-5-yl)amino)methyl)piperidin-3-ol]
[1]; [4]
  IC50: 167 nM
[1]; Table 1
  CDK7/CDK12: 0.2
[1]; [5]
  IC50: 167 nM
[2]
  IC50: 28 nM
[3]
  IC50: 2.7 nM
  Ratio of Biochemical Potency: Cellular Potency: 62

## Cc1cccn2cc(CNc3cc(NC[C@H]4CCNC[C@@H]4O)nc4c(C5CC5)cnn34)nc12 [H-APPAMP-022, (3R,4R)-4-(((3-cyclopropyl-7-(((8-methylimidazo[1,2-a]pyridin-2-yl)methyl)amino)pyrazolo[1,5-a]pyrimidin-5-yl)amino)methyl)piperidin-3-ol]
[1]; [4]
  IC50: 164 nM
[1]; Table 1
  CDK7/CDK12: 3.8
[1]; [5]
  IC50: 164 nM
[2]
  IC50: 622 nM
[3]
  IC50: 10.3 nM
  Ratio of Biochemical Potency: Cellular Potency: 16

## CC(C)c1cnn2c(NCc3nc4ccccn4c3C(F)(F)F)cc(NC[C@H]3CCNC[C@@H]3O)nc12 [H-APPAMP-023, (3R,4R)-4-(((3-isopropyl-7-(((3-(trifluoromethyl)imidazo[1,2-a]pyridin-2-yl)methyl)amino)pyrazolo[1,5-a]pyrimidin-5-yl)amino)methyl)piperidin-3-ol]
[1]; [4]
  IC50: 702 nM
[1]; Table 1
  CDK7/CDK12: 0.1
[1]; [5]
  IC50: 702 nM
[2]
  IC50: 102 nM
[3]
  IC50: 296 nM
  Ratio of Biochemical Potency: Cellular Potency: 2.4

## CC(C)c1cnn2c(NCc3nc4ccccn4c3C3CC3)cc(NC[C@H]3CCNC[C@@H]3O)nc12 [H-APPAMP-024, (3R,4R)-4-(((7-(((3-cyclopropylimidazo[1,2-a]pyridin-2-yl)methyl)amino)-3-isopropylpyrazolo[1,5-a]pyrimidin-5-yl)amino)methyl)piperidin-3-ol]
[1]; [4]
  IC50: 93 nM
[1]; Table 1
  CDK7/CDK12: 3.0
[1]; [5]
  IC50: 93 nM
[2]
  IC50: 283 nM
[3]
  IC50: 19.8 nM
  Ratio of Biochemical Potency: Cellular Potency: 4.7

## CCc1cnn2c(NCc3cn4cccc(C)c4n3)cc(NC[C@H]3CCNC[C@@H]3O)nc12 [H-APPAMP-026, (3R,4R)-4-(((3-ethyl-7-(((8-methylimidazo[1,2-a]pyridin-2-yl)methyl)amino)pyrazolo[1,5-a]pyrimidin-5-yl)amino)methyl)piperidin-3-ol]
[1]; [4]
  IC50: 31 nM
[1]; Table 1
  CDK7/CDK12: 2.2
[1]; [5]
  IC50: 31 nM
[2]
  IC50: 69 nM
[3]
  IC50: 2.5 nM
  Ratio of Biochemical Potency: Cellular Potency: 12

## COc1cccc2nc(CNc3cc(NC[C@H]4CCNC[C@@H]4O)nc4c(C5CC5)cnn34)cn12 [H-APPAMP-027, (3R,4R)-4-(((3-cyclopropyl-7-(((5-methoxyimidazo[1,2-a]pyridin-2-yl)methyl)amino)pyrazolo[1,5-a]pyrimidin-5-yl)amino)methyl)piperidin-3-ol]
[1]; [4]
  IC50: 28 nM
[1]; Table 1
  CDK7/CDK12: 4.5
[1]; [5]
  IC50: 28 nM
[2]
  IC50: 127 nM
[3]
  IC50: 1.6 nM
  Ratio of Biochemical Potency: Cellular Potency: 18

## O[C@H]1CNCC[C@@H]1CNc1cc(NCc2cn3nc(C4CC4)ccc3n2)n2ncc(C3CC3)c2n1 [H-APPAMP-028, (3R,4R)-4-(((3-cyclopropyl-7-(((6-cyclopropylimidazo[1,2-b]pyridazin-2-yl)methyl)amino)pyrazolo[1,5-a]pyrimidin-5-yl)amino)methyl)piperidin-3-ol]
[1]; [4]
  IC50: 37 nM
[1]; Table 1
  CDK7/CDK12: 1.8
[1]; [5]
  IC50: 37 nM
[2]
  IC50: 68 nM
[3]
  IC50: 13.1 nM
  Ratio of Biochemical Potency: Cellular Potency: 2.8

## Cc1cccn2cc(CNc3cc(NC[C@H]4CCNC[C@@H]4O)nc4c(C5CCC5)cnn34)nc12 [H-APPAMP-029, (3R,4R)-4-(((3-cyclobutyl-7-(((8-methylimidazo[1,2-a]pyridin-2-yl)methyl)amino)pyrazolo[1,5-a]pyrimidin-5-yl)amino)methyl)piperidin-3-ol]
[1]; [4]
  IC50: 65 nM
[1]; Table 1
  CDK7/CDK12: 3.0
[1]; [5]
  IC50: 65 nM
[2]
  IC50: 196 nM
[3]
  IC50: 18.5 nM
  Ratio of Biochemical Potency: Cellular Potency: 3.5

## O[C@H]1CNCC[C@@H]1CNc1cc(NCc2cn3c(C4CC4)cccc3n2)n2ncc(C3CC3)c2n1 [H-APPAMP-030, (3R,4R)-4-(((3-cyclopropyl-7-(((5-cyclopropylimidazo[1,2-a]pyridin-2-yl)methyl)amino)pyrazolo[1,5-a]pyrimidin-5-yl)amino)methyl)piperidin-3-ol]
[1]; [4]
  IC50: 75 nM
[1]; Table 1
  CDK7/CDK12: 3.7
[1]; [5]
  IC50: 75 nM
[2]
  IC50: 274 nM
[3]
  IC50: 8.7 nM
  Ratio of Biochemical Potency: Cellular Potency: 8.6

## CCc1cnn2c(NCc3cn4c(C)cccc4n3)cc(NC[C@H]3CCNC[C@@H]3O)nc12 [H-APPAMP-031, (3R,4R)-4-(((3-ethyl-7-(((5-methylimidazo[1,2-a]pyridin-2-yl)methyl)amino)pyrazolo[1,5-a]pyrimidin-5-yl)amino)methyl)piperidin-3-ol]
[1]; [4]
  IC50: 24 nM
[1]; Table 1
  CDK7/CDK12: 38.3
[1]; [5]
  IC50: 24 nM
[2]
  IC50: 919 nM
[3]
  IC50: 2.2 nM
  Ratio of Biochemical Potency: Cellular Potency: 11

## Cc1cc(C)n2cc(CNc3cc(NC[C@H]4CCNC[C@@H]4O)nc4c(C5CC5)cnn34)nc2c1 [H-APPAMP-032, (3R,4R)-4-(((3-cyclopropyl-7-(((5,7-dimethylimidazo[1,2-a]pyridin-2-yl)methyl)amino)pyrazolo[1,5-a]pyrimidin-5-yl)amino)methyl)piperidin-3-ol]
[1]; [4]
  IC50: 45 nM
[1]; Table 1
  CDK7/CDK12: 19.1
[1]; [5]
  IC50: 45 nM
[2]
  IC50: 859 nM
[3]
  IC50: 6.1 nM
  Ratio of Biochemical Potency: Cellular Potency: 7.4

## O[C@H]1CNCC[C@@H]1CNc1cc(NCc2cn3cc(C(F)(F)F)cc(Cl)c3n2)n2ncc(C3CC3)c2n1 [H-APPAMP-033, (3R,4R)-4-(((7-(((8-chloro-6-(trifluoromethyl)imidazo[1,2-a]pyridin-2-yl)methyl)amino)-3-cyclopropylpyrazolo[1,5-a]pyrimidin-5-yl)amino)methyl)piperidin-3-ol]
[1]; [4]
  IC50: 62 nM
[1]; Table 1
  CDK7/CDK12: 17.1
[1]; [5]
  IC50: 62 nM
[2]
  IC50: 1060 nM
[3]
  IC50: 5.7 nM
  Ratio of Biochemical Potency: Cellular Potency: 11

## CCc1cnn2c(NCc3cn4c(C(F)(F)F)cccc4n3)cc(NC[C@H]3CCNC[C@@H]3O)nc12 [H-APPAMP-034, (3R,4R)-4-(((3-ethyl-7-(((5-(trifluoromethyl)imidazo[1,2-a]pyridin-2-yl)methyl)amino)pyrazolo[1,5-a]pyrimidin-5-yl)amino)methyl)piperidin-3-ol]
[1]; [4]
  IC50: 173 nM
[1]; Table 1
  CDK7/CDK12: 0.9
[1]; [5]
  IC50: 173 nM
[2]
  IC50: 152 nM
[3]
  IC50: 12.1 nM
  Ratio of Biochemical Potency: Cellular Potency: 14
